# Literature values as cited in patent US12059506B2, “Coated implantable device” (NOBIL BIO RICERCHE S.R.L., priority 2017, dated 2024).
# Settings: aqueous phase
smiles,measurement,value
C[C@@H]1O[C@@H](Oc2c(-c3ccc(O)c(O)c3)oc3cc(O)cc(O)c3c2=O)[C@H](O)[C@H](O)[C@H]1O [quercitrin],solubility in water,insoluble
